This note sets out measurements from PubChem BioAssay (NCI).

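Step 1: Grow cells in 96-well plates. Step 2: Expose to compound for 48 hours at 5 concentrations. Step 3: Interpolate endpoints linearly; if unreached, use highest concentration. TGI marks complete inhibition of growth.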 Where a SMILES comes first, the peptide text is derived from it. The star is where a group is joined. Boc = CC(C)(C)OC(=O)*; tBu = CC(C)(C)*

Common to all, as to test: DTP human tumour cell line panel, 48 h
Assay [1] concerns DU-145 prostate.
For assay [2], the system named is EKVX NSCLC.
Assay [3] relates to HCC-2998 colon.
For assay [4], the system named is HS 578T breast.
The subject of assay [5] is HT29 colon.
In assay [6] the test system is K-562 leukemia.
Assay [7] has as its system KM12 colon.
Assay [8] concerns MCF7 breast.
Assay [9] relates to MDA-MB-231 breast.
Assay [10] has as its system MDA-N.
Assay [11] has as its system NCI-H23 lung.
In assay [12] the test system is NCI-H460 lung.
The subject of assay [13] is OVCAR-5 ovarian.
For assay [14], the system named is PC-3 prostate.
The subject of assay [15] is SF-268 CNS.
The subject of assay [16] is SF-539 CNS.
The test system of assay [17] is SK-OV-3 ovarian.
Assay [18] relates to SN12C renal.
Assay [19] deals with U251 CNS.

For orientation: TGI means the concentration at which net growth stops. Read a low TGI as more potent growth arrest. On to `CC(OC(C)(C)C)C(NC(=O)C(N)CCCCNC(=O)OC(C)(C)C)C(=O)NC(Cc1ccccc1)C(=O)O` (configuration not stated) (H-Lys(Boc)-Thr(tBu)-Phe-OH; configuration not given here), for which the TGI in assay [1], in assay [2], in assay [3], in assay [4], in [5] and in assay [6] was greater than 100 µM each time. Also, the total growth inhibition concentration (TGI) in assay [7], in [8], in assay [9], in assay [10], in assay [11] and in assay [12] was greater than 100 µM each time. In addition, the TGI in assay [13], in assay [14], in assay [15], in assay [16], in assay [17] and in assay [18] was greater than 100 µM throughout. In addition, in assay [19], the TGI is greater than 100 µM.

As for `CC(=O)O[C@H]1C[C@H]2[C@@H]([C@H](OC(C)=O)C[C@@H]3CC4(CC[C@@]32C)OOC2(CCCCC2)OO4)[C@@H]2CC[C@H]([C@H](C)CCC(=O)O)[C@@]12C`, the TGI in [1] amounted to 31.6 µM; in [2], 4.76 µM; in assay [3] it was 25 µM; in assay [4], 9.32 µM; in assay [5], 25.3 µM; in [6] it was 23.7 µM. Besides, the TGI in [7] was 17.1 µM; in assay [8], 22.1 µM; in [9], 34.1 µM; in [10], 26.9 µM; in assay [11], 16.6 µM; in assay [12], 21.6 µM. Besides, the TGI worked out at 29.8 µM in [13]; 22.2 µM in [14]; 26.8 µM in assay [15]; 20.3 µM in assay [16]; 26.9 µM in assay [17]; 20.7 µM in [18]. This compound returned a TGI in [19] of 17.7 µM.

For `N#Cc1c(N)nc2n[nH]c(N)c2c1-c1ccccc1`, the TGI in assay [1] was 54.2 µM; in assay [2], 55 µM; in [3], greater than 57 µM; in [4], 24.2 µM; in assay [5], 57.7 µM; in assay [6], greater than 100 µM. The TGI in assay [7] is 79.5 µM; in assay [8], 24.7 µM; in assay [9] it was 38.7 µM; in assay [10] it was 33 µM; in assay [11], 50.2 µM; in [12], greater than 53.2 µM. The TGI in assay [13] was greater than 100 µM; in assay [14], 35.5 µM; in assay [15] it was 29.2 µM; in assay [16], 21.1 µM; in assay [17], 20.4 µM; in assay [18] it was 31.8 µM. The compound also yielded a TGI in assay [19] of 92.2 µM.
